pIC50: −log10 of the molar value. Where a name gives a salt, the structure may show the parent alone.
Biological target: T1, adhesion of U937 cells (VLA-4) to hVCAM-1(1-3)-IgG (Homo sapiens, UniProt P05556+P13612)
T1 construct: the VLA-4 integrins, are supplied in their natural form as surface molecules on human U937 cells; host or cells: Human U937 cells carry endogenous VLA-4; The partner hVCAM-1(1-3)-IgG was made in transfected COS cells (ATCC CRL1651) and used as culture supernatant
Assay: U937/VCAM-1 cell adhesion test
Assay type: cell-based
Settings: human U937 cells (ATCC CRL 1593); recombinant hVCAM-1(1-3)-IgG; read-out: IC50 (inhibition of the adhesion of U937 cells to hVCAM-1(1-3)-IgG by 50%)
From the text: A) U937/VCAM-1 Cell Adhesion Test
The test method used for the activity of the compounds of formula I on the interaction between VCAM-1 and VLA-4 is the assay described below, which is specific for this interaction. The cellular binding components, i.e., the VLA-4 integrins, are supplied in their natural form as surface molecules on human U937 cells (ATCC CRL 1593), which belong to the leukocytes group. As specific binding components, recombinant soluble fusion proteins prepared by genetic engineering, consisting of the extracytoplasmic domain of human VCAM-1 and the constant region of a human immunoglobulin of subclass IgG1, are used.
Assay for the measurement of the adhesion of U937 cells (ATCC CRL 1593) to hVCAM-1(1-3)-IgG
1. Preparation of Human VCAM-1(1-3)-IgG and Human CD4-IgG
A genetic construct for the expression of the extracellular domain of human VCAM-1, combined with the genetic sequence of the heavy chain of the human immunoglobulin IgG1 (hinge, CH2 and CH3 regions) (from Dr. Brian Seed, Massachusetts General Hospital, Boston, USA; cf. Damle and Aruffo, Proc. Natl. Acad. Sci. USA, 88:6403 (1991)), was employed. The soluble fusion protein hVCAM-1(1-3)-IgG contained the three amino-terminal extracellular immunoglobulin-like domains of human VCAM-1 (Damle and Aruffo, Proc. Natl. Acad. Sci. USA, 88:6403 (1991)). CD4-IgG (Zettlmeissl et al., DNA and Cell Biology, 9:347 (1990)) served as a fusion protein for negative controls. The recombinant proteins were expressed as soluble proteins after DEAE/dextran-mediated DNA transfection in COS cells (ATCC CRL1651) according to standard procedures (Ausubel et al., “Current Protocols in Molecular Biology”, John Wiley & Sons, Inc., 1994).
2. Assay for the Measurement of the Adhesion of U937 Cells to hVCAM-1 (1-3)-IgG
2.1 96 well microtiter test plates (Nunc Maxisorb) were incubated at room temperature for 1 hour with 100 μL/well of a goat anti-human IgG antibody solution (10 μg/mL in 50 mM tris, pH 9.5). After removal of the antibody solution, washing was carried out once with PBS.
2.2 150 μL/well of a blocking buffer (1% BSA in PBS) were incubated on the plates at room temperature for 0.5 hour. After removal of the blocking buffer, washing was carried out once with PBS.
2.3 100 μL per well of a cell culture supernatant of transfected COS cells were incubated on the plates at room temperature for 1.5 hours. The COS cells were transfected with a plasmid which codes for the three N-terminal immunglobulin-like domains of VCAM-1, coupled to the Fc part of human IgG1 (hVCAM-l (1-3)-IgG). The content of hVCAM-1(1-3)-IgG was about 0.5-1 μg/mL. After removal of the culture supernatant, washing was carried out once with PBS.
2.4 The plates were incubated at room temperature for 20 minutes with 100 μL/well of Fc receptor block buffer (1 mg/mL γ-globulin, 100 mM NaCl, 100 μM MgCl2, 100 μM MnCl2, 100 μM CaCl2, 1 mg/mL BSA in 50 mM HEPES, pH 7.5). After removal of the Fc receptor block buffer, washing was carried out once with PBS.
2.5 20 μL of binding buffer (100 mM NaCl, 100 μM MgCl2, 100 μM MnCl2, 100 μM CaCl2, 1 mg/mL BSA in 50 mM HEPES, pH 7.5) were introduced, the substances to be tested were added in 10 μL of binding buffer and incubation was carried out for 20 minutes. Antibodies against VCAM-1 (BBT, No. BBA6) and against VLA-4 (Immunotech, No. 0764) served as controls.
2.6 U937 cells were incubated for 20 minutes in Fc receptor block buffer and then added by pipette in a concentration of 1×10^6/mL and in an amount of 100 μL per well (final volume […]).
2.7 The plates were slowly immersed at an angle of 45° in stop buffer (100 mM NaCl, 100 μM MgCl2, […], 100 μM CaCl2 in 25 mM tris, pH 7.5) and shaken off. The process was repeated.
2.8 50 μL/well of a dye solution (16.7 μg/mL of Hoechst dye 33258, 4% formaldehyde, 0.5% Triton X-100 in PBS) were then incubated on the plates for 15 minutes. […]

T1 sequence (P13612 34-1032): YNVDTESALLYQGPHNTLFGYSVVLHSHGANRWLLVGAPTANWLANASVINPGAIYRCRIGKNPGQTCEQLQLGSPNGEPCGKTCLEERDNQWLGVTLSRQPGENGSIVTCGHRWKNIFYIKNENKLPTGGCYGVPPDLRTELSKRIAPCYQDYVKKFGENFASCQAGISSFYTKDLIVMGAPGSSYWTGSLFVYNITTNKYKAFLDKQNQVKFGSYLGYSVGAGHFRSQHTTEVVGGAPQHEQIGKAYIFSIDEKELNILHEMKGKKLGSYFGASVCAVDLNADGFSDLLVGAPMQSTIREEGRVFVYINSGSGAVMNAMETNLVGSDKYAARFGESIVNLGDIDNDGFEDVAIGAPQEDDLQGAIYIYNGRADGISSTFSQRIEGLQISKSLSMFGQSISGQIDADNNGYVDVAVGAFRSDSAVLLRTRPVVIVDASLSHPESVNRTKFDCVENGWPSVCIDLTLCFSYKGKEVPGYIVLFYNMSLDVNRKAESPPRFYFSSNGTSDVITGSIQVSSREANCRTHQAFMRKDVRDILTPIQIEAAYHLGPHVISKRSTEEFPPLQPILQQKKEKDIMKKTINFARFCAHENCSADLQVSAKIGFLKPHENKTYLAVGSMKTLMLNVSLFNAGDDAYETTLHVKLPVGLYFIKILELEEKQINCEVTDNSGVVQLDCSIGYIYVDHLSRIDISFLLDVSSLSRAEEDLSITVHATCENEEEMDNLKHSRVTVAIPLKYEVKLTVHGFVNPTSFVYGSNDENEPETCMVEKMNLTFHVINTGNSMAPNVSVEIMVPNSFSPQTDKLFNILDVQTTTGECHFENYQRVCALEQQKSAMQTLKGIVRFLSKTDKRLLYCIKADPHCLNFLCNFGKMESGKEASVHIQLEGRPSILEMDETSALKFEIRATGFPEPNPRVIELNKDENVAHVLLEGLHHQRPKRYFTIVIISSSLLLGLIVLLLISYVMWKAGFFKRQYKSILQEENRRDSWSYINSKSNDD
T1 sequence (P05556 21-798): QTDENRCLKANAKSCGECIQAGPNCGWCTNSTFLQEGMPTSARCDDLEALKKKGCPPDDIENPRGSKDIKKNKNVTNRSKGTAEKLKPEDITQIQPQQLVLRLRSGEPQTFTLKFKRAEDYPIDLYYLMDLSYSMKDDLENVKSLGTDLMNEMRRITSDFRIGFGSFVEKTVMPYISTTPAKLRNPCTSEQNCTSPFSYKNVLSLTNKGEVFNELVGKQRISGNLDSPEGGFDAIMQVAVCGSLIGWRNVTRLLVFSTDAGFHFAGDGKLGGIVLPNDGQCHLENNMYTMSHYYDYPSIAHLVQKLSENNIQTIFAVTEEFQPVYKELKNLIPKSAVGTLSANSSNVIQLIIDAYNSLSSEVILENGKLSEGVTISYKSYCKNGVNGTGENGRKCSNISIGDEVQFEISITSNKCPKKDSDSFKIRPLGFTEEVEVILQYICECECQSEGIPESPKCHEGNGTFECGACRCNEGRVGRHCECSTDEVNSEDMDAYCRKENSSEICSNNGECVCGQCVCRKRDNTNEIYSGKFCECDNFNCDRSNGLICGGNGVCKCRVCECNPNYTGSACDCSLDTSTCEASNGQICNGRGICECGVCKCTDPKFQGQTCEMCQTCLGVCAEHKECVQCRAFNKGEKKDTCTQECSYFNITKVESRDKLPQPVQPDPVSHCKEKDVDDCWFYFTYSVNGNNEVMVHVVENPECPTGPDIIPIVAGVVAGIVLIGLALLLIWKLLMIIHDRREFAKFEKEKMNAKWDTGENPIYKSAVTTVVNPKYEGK

| Compound | pIC50 |
| --- | --- |
| COc1cc(CN2C(=O)N([C@@H](CC3CC3)C(=O)N[C@H](C)CC(=O)O)C(=O)C2(C)C)ccc1NC(=O)Nc1ccccc1C [Example 1, (R)-3-((S)-2-(4,4-Dimethyl-3-(4-(3-(2-methylphenyl)ureido)-3-methoxybenzyl)-2,5-dioxoimidazolidin-1-yl)-2-(cyclopropylmethyl)acetylamino)-3-methylpropionic Acid] | 9.52 |
| Cc1ccccc1NC(=O)Nc1ccc(CN2C(=O)N([C@@H](CC3CC3)C(=O)N[C@H](C)CC(=O)O)C(=O)C2(C)C)cc1O [Example 5, (R)-3-((S)-2-(4,4-Dimethyl-3-(4-(3-(2-methylphenyl)ureido)-3-hydroxybenzyl)-2,5-dioxoimidazolidin-1-yl)-2-(cyclopropylmethyl)acetylamino)-3-methylpropionic Acid] | 7.59 |
| COc1cc(CN2C(=O)N([C@@H](CC3CC3)C(=O)NC(CC(=O)O)c3cccnc3)C(=O)C2(C)C)ccc1NC(=O)Nc1ccccc1C (stereo partly drawn) [Example 10, 3-((S)-2-(4,4-Dimethyl-3-(4-(3-(2-methylphenyl)ureido)-3-methoxybenzyl)-2,5-dioxoimidazolidin-1-yl)-2-(cyclopropylmethyl)acetylamino)-3-(3-pyridyl)propionic Acid Hydrochloride] | 9.22 |

Continued by rising pIC50, values first:

| pIC50 | Compound |
| --- | --- |
| 8.36 | COc1cc(CN2C(=O)N([C@@H](CC3CC3)C(=O)N[C@@H](CC(=O)O)c3ccccc3)C(=O)C2(C(F)(F)F)C(F)(F)F)ccc1NC(=O)Nc1ccccc1C [Example 19, (S)-3-((S)-2-(4,4-Bis(trifluoromethyl)-3-(4-(3-(2-methylphenyl)ureido)-3-methoxybenzyl)-2,5-dioxoimidazolidin-1-yl)-2-(cyclopropylmethyl)acetylamino)-3-phenylpropionic Acid] |
| 8.68 | COc1cc(CN2C(=O)N([C@@H](CC3CC3)C(=O)N[C@H](C)CC(=O)O)C(=O)C2(C)C)ccc1NC(=O)Nc1ccccc1 [Example 7, (R)-3-((S)-2-(4,4-Dimethyl-3-(4-(3-phenylureido)-3-methoxybenzyl)-2,5-dioxoimidazolidin-1-yl)-2-(cyclopropylmethyl)acetylamino)-3-methylpropionic Acid] |
| 8.74 | COc1cc(CN2C(=O)N([C@@H](CC3CC3)C(=O)NC(CC(=O)O)c3ccncc3)C(=O)C2(C)C)ccc1NC(=O)Nc1ccccc1C (stereo partly drawn) [Example 13, 3-((S)-2-(4,4-Dimethyl-3-(4-(3-(2-methylphenyl)ureido)-3-methoxybenzyl)-2,5-dioxoimidazolidin-1-yl)-2-(cyclopropylmethyl)acetylamino)-3-(4-pyridyl)propionic Acid Hydrochloride] |
| 9.05 | COc1cc(CN2C(=O)N([C@@H](CC3CC3)C(=O)NC(CC(=O)O)c3ccccn3)C(=O)C2(C)C)ccc1NC(=O)Nc1ccccc1C (stereo partly drawn) [Example 16, 3-((S)-2-(4,4-Dimethyl-3-(4-(3-(2-methylphenyl)ureido)-3-methoxybenzyl)-2,5-dioxoimidazolidin-1-yl)-2-(cyclopropylmethyl)acetylamino)-3-(2-pyridyl)propionic Acid] |
| 9.30 | COc1cc(CN2C(=O)N([C@@H](CC3CC3)C(=O)N[C@H](C)CC(=O)O)C(=O)C2(C)C)ccc1NC(=O)Nc1ccccc1C [Example 2] |
